For data set [1], the system named is normal human bronchial epithelial cells (HBE). In words: CCK-8 cellular selectivity assay, HBE. In kind it is cell-based. Conditions: for IC50: Homo sapiens, Epithelial cell, HBE normal cells, CCK-8, 72 h, mean ± SD of three experiments, read-out: Antiproliferative Activity IC50, HBE; for SI Values (selectivity index): IC50 for HBE cell line/IC50 for H1975 cell line. How it is done:
(§1) The H1975 human NSCLC cell line was obtained from ATCC. A431 human epithelial carcinoma and HBE human bronchial epithelial cell lines were kind gifts from Fuheng Biological Company Ltd. (Shanghai, China) and YuXi Biotech Company (Jiangsu, China), respectively. The cells were maintained in RPMI 1640 or DMEM (Gibco®, Thermo Fisher Scientific Inc., Waltham, MA, USA) containing 10% fetal bovine serum (FBS, Gibco®) and 1% penicillin-streptomycin (Beyotime Company, Shanghai, China) at 37 °C in a 5% CO2 incubator.
(§2) A total of 3000 cells of H1975 or HBE and 5000 cells of A431 were seeded for each well into a 96-well plate and cultured in 10% FBS respective growth medium overnight. Various concentrations (0–20 μM) of each compound were then added in triplicate to the cells. After 72 h of incubation, 10 μL of CCK-8 solution (5.0 mg/mL, Biotool Company, Kirchberg, Switzerland) was added to each well and the cells continued to culture for 4 h. The optical density (OD) was determined at 450 nm with a microplate reader (Thermo Fisher Scientific, Waltham, MA, USA). IC50 values were calculated employing GraphPad Prism version 8.0.

Data set [2] concerns H1975 non-small cell lung cancer (NSCLC) cells. In words: CCK-8 cell viability assay, H1975. The note with it: Homo sapiens, NCI-H1975, CCK-8, 72 h, mean ± SD of three experiments, read-out: Antiproliferative Activity IC50, H1975. In kind it is cell-based. How it is done:
as §1, §2
A general note: Tetrazolium dyes change colour on reduction, which living cells bring about.

Another data set deals with T1, FAK kinase (Homo sapiens, UniProt Q05397).
T1 construct: purchased Promega Corporation V9301
T1 sequence (Q05397 393-698 limits assumed): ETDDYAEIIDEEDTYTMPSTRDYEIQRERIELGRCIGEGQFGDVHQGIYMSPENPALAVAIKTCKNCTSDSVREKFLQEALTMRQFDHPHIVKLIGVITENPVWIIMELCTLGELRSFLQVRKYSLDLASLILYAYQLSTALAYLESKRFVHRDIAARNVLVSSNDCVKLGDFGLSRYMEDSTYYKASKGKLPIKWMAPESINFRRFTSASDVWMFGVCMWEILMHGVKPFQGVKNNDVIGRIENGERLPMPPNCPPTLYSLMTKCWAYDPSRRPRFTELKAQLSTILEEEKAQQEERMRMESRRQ
Kind of data set: ADP-Glo kinase enzymatic assay. It is filed as biochemical. The note with it: mean ± SD of three independent experiments. As to the method: The ADP-Glo™ Kinase Assay Kit and FAK Kinase Enzyme (Catalog. V9301) were purchased from Promega Corporation (Madison, WI, USA). The experiments were performed according to the detailed and complete protocols of the manufacturer. Briefly, the concentration of FAK determined by optimization experiments was 0.1 μg/μL. Suitable concentration gradients from 1.6 to 1000 nM were set for all the tested compounds. A kinase reaction buffer, a substrate/ATP mixture, and a FAK solution were prepared right before use. The 5 μL kinase reaction consisted of 1 μL of compound solution, 2 μL of substrate/ATP mixture, and 2 μL of FAK solution. The control without enzyme was provided by 3 μL of kinase reaction buffer and 2 μL of substrate/ATP mixture. The negative control was prepared using 1 μL of kinase reaction buffer instead of a compound solution. The kinase reactions were added to a 384-well plate and incubated at room temperature for 60 min, then 5 μL of ADP-Glo™ Reagent was added to stop the kinase reaction and deplete the unconsumed ATP, and incubated at room temperature for 40 min. After adding 10 μL of Kinase Detection Reagent, the plate was incubated at room temperature for 30 min and then luminescence was recorded (integration time 0.5–1 s) on a TriStar® LB942 Multimode Microplate Reader (BERTHOLD TECHNOLOGIES GmbH & Co. KG., Bad Wildbad, Germany). Curve fitting and data presentations were performed using GraphPad Prism version 8.0.

For data set [3], the system named is A431 human epithelial carcinoma cells. Kind of data set: CCK-8 cell viability assay, A431. In kind it is cell-based. The note with it: A-431, CCK-8, 72 h, mean ± SD of three experiments, read-out: Antiproliferative Activity IC50, A431. As to the method:
as §1, §2

Some results are limits rather than exact numbers.

What is called IC50 is the midpoint of a concentration-inhibition curve. Consider `O=C(NCCCCCCO)c1ccccc1Nc1nc(Nc2ccc(CN3CCOCC3)cc2)ncc1Cl` [Compound 8g, 2-((5-Chloro-2-((4-(morpholinomethyl)phenyl)amino)pyrimidin-4-yl)amino)-N-(6-hydroxyhexyl)benzamide], for which the IC50 came out at 1.65 ± 0.813 µM in data set [1], 0.287 ± 0.061 µM in data set [2], 0.198 ± 0.032 µM at FAK kinase and 0.507 ± 0.019 µM in data set [3]. Moreover, the “SI Values (selectivity index)” value in data set [1] worked out at 6.
For the molecule `C=CC(=O)Nc1cc(Nc2nccc(-c3cn(C)c4ccccc34)n2)c(OC)cc1N(C)CCN(C)C` [Osimertinib, osimertinib, reference compound], the IC50 in data set [1] worked out at 1.21 ± 0.177 µM; in data set [2], 0.116 ± 0.032 µM; in data set [3] it was 0.988 ± 0.119 µM. Besides, the “SI Values (selectivity index)” value in data set [1] turned out to be 10.
As usually defined, the melting point is the temperature, or range, at which the solid turns liquid. `CC(CNC(=O)c1ccccc1Nc1nc(Nc2ccc(CN3CCOCC3)cc2)ncc1Cl)Oc1no[n+]([O-])c1S(=O)(=O)c1ccccc1` (centres unmarked) [Compound 9c, 4-((1-(2-((5-Chloro-2-((4-(morpholinomethyl)phenyl)amino)pyrimidin-4-yl)amino)benzamido)propan-2-yl)oxy)-3-(phenylsulfonyl)-1,2,5-oxadiazole 2-oxide] gave a melting point of 187 to 189 °C. Moreover, in data set [1], the IC50 was determined as 2.42 ± 0.546 µM and the “SI Values (selectivity index)” value came out at 4. Besides, in data set [2], the IC50 is 0.567 ± 0.086 µM. In addition, inhibition against FAK kinase was half-maximal at 0.089 ± 0.014 µM (IC50). The IC50 in data set [3] turned out to be 1.07 ± 0.154 µM.
As for `CCC(C)C(CO)NC(=O)c1ccccc1Nc1nc(Nc2ccc(CN3CCOCC3)cc2)ncc1Cl` (centres unmarked) [Compound 8i, 2-((5-Chloro-2-((4-(morpholinomethyl)phenyl)amino)pyrimidin-4-yl)amino)-N-(1-hydroxy-3-methylpentan-2-yl)benzamide], the IC50 in data set [1] is greater than 20 µM; in data set [2], 0.815 ± 0.061 µM; against FAK kinase it was 0.126 ± 0.021 µM; in data set [3] it was 1.25 ± 0.909 µM. In data set [1], the “SI Values (selectivity index)” value is recorded as greater than 24.
Turning to `CC(O)CNC(=O)c1ccccc1Nc1nc(Nc2ccc(CN3CCOCC3)cc2)ncc1Cl` (centres unmarked) [Compound 8c, 2-((5-Chloro-2-((4-(morpholinomethyl)phenyl)amino)pyrimidin-4-yl)amino)-N-(2-hydroxypropyl)benzamide], the IC50 in data set [1] came out at 4.01 ± 0.231 µM; in data set [2], 0.119 ± 0.047 µM; against FAK kinase, 0.03 ± 0.007 µM; in data set [3], 0.158 ± 0.027 µM. In data set [1], the “SI Values (selectivity index)” value worked out at 34.
For `O=C(c1ccccc1Nc1nc(Nc2ccc(CN3CCOCC3)cc2)ncc1Cl)N1CCC(O)CC1` [Compound 8e], the half-maximal inhibitory concentration (IC50) is 0.435 ± 0.045 µM in data set [1], 1.41 ± 0.132 µM in data set [2], 0.129 ± 0.037 µM at FAK kinase and 0.238 ± 0.098 µM in data set [3]. Moreover, in data set [1], the “SI Values (selectivity index)” value is 0.3.
Consider `O=C(NCCCCCCOc1no[n+]([O-])c1S(=O)(=O)c1ccccc1)c1ccccc1Nc1nc(Nc2ccc(CN3CCOCC3)cc2)ncc1Cl` [Compound 9g, 4-((6-(2-((5-Chloro-2-((4-(morpholinomethyl)phenyl)amino)pyrimidin-4-yl)amino)benzamido)hexyl)oxy)-3-(phenylsulfonyl)-1,2,5-oxadiazole 2-oxide], for which the melting point was in the range of 120 to 122 °C. In data set [1], the IC50 came to 3.01 ± 0.09 µM and the “SI Values (selectivity index)” value is 5. Moreover, the IC50 in data set [2] amounted to 0.592 ± 0.073 µM. Further, the IC50 against FAK kinase was greater than 1 µM. Besides, the half-maximal inhibitory concentration (IC50) in data set [3] was found to be 0.617 ± 0.04 µM.
Regarding `CN(CCOc1no[n+]([O-])c1S(=O)(=O)c1ccccc1)C(=O)c1ccccc1Nc1nc(Nc2ccc(CN3CCOCC3)cc2)ncc1Cl` [Compound 9d, 4-(2-(2-((5-Chloro-2-((4-(morpholinomethyl)phenyl)amino)pyrimidin-4-yl)amino)-N-methylbenzamido)ethoxy)-3-(phenylsulfonyl)-1,2,5-oxadiazole 2-oxide], the melting point is 169 to 171 °C. In data set [1], the IC50 was 4.55 ± 0.533 µM and the “SI Values (selectivity index)” value is given as 4. For the same molecule, in data set [2], the IC50 worked out at 1.09 ± 0.137 µM. The IC50 at FAK kinase is 0.066 ± 0.014 µM. The half-maximal inhibitory concentration (IC50) in data set [3] came out at 2.74 ± 0.206 µM.
Consider `O=C(NCCCO)c1ccccc1Nc1nc(Nc2ccc(CN3CCOCC3)cc2)ncc1Cl` [Compound 8b, 2-((5-Chloro-2-((4-(morpholinomethyl)phenyl)amino)pyrimidin-4-yl)amino)-N-(3-hydroxypropyl)benzamide], for which the IC50 was determined as 1.15 ± 0.283 µM in data set [1], 0.075 ± 0.011 µM in data set [2], 0.061 ± 0.009 µM at FAK kinase and 0.207 ± 0.036 µM in data set [3]. For the same molecule, the “SI Values (selectivity index)” value in data set [1] is 15.
`O=C(NCCOc1no[n+]([O-])c1S(=O)(=O)c1ccccc1)c1ccccc1Nc1nc(Nc2ccc(CN3CCOCC3)cc2)ncc1Cl` [Compound 9a, 4-(2-(2-((5-Chloro-2-((4-(morpholinomethyl)phenyl)amino)pyrimidin-4-yl)amino)benzamido)ethoxy)-3-(phenylsulfonyl)-1,2,5-oxadiazole 2-oxide] came in with a melting point of 174 to 176 °C. Moreover, in data set [1], the IC50 was determined as 0.916 ± 0.092 µM and the “SI Values (selectivity index)” value came to 19. Moreover, the IC50 in data set [2] amounted to 0.047 ± 0.009 µM. On FAK kinase, this molecule yielded an IC50 of 0.149 ± 0.033 µM. For the same molecule, the IC50 in data set [3] came to 0.182 ± 0.032 µM.
Take `O=C(c1ccccc1Nc1nc(Nc2ccc(CN3CCOCC3)cc2)ncc1Cl)N1CCC(CO)CC1` [Compound 8f]: the IC50 worked out at 0.862 ± 0.125 µM in data set [1], 2.22 ± 0.261 µM in data set [2], 0.173 ± 0.023 µM on FAK kinase and 0.195 ± 0.097 µM in data set [3]. The “SI Values (selectivity index)” value in data set [1] was determined as 0.4.
Molecule `O=C(NCCCOc1no[n+]([O-])c1S(=O)(=O)c1ccccc1)c1ccccc1Nc1nc(Nc2ccc(CN3CCOCC3)cc2)ncc1Cl` [Compound 9b, 4-(3-(2-((5-Chloro-2-((4-(morpholinomethyl)phenyl)amino)pyrimidin-4-yl)amino)benzamido)propoxy)-3-(phenylsulfonyl)-1,2,5-oxadiazole 2-oxide] registered a melting point of 144 to 146 °C. Moreover, in data set [1], the IC50 is 2.08 ± 0.366 µM and the “SI Values (selectivity index)” value is 13. Also, the IC50 in data set [2] was 0.164 ± 0.051 µM. In addition, at FAK kinase, the IC50 came out at 0.338 ± 0.038 µM. In addition, in data set [3], the IC50 came to 0.138 ± 0.031 µM.
With `CN(CCO)C(=O)c1ccccc1Nc1nc(Nc2ccc(CN3CCOCC3)cc2)ncc1Cl` [Compound 8d, 2-((5-Chloro-2-((4-(morpholinomethyl)phenyl)amino)pyrimidin-4-yl)amino)-N-(2-hydroxyethyl)-N-methylbenzamide], the IC50 turned out to be 3.83 ± 0.5 µM in data set [1], 0.293 ± 0.05 µM in data set [2], 0.04 ± 0.011 µM on FAK kinase and 0.161 ± 0.082 µM in data set [3]. The “SI Values (selectivity index)” value in data set [1] came out at 13.
For the molecule `O=C(NCC(O)CO)c1ccccc1Nc1nc(Nc2ccc(CN3CCOCC3)cc2)ncc1Cl` (centres unmarked) [Compound 8h, 2-((5-Chloro-2-((4-(morpholinomethyl)phenyl)amino)pyrimidin-4-yl)amino)-N-(2,3-dihydroxypropyl)benzamide], the IC50 in data set [1] is 0.688 ± 0.121 µM; in data set [2], 0.219 ± 0.082 µM; on FAK kinase, 0.072 ± 0.007 µM; in data set [3], 0.047 ± 0.006 µM. The “SI Values (selectivity index)” value in data set [1] is 3.
`O=C(c1ccccc1Nc1nc(Nc2ccc(CN3CCOCC3)cc2)ncc1Cl)N1CCC(COc2no[n+]([O-])c2S(=O)(=O)c2ccccc2)CC1` [Compound 9f, 4-((1-(2-((5-Chloro-2-((4-(morpholinomethyl)phenyl)amino)pyrimidin-4-yl)amino)benzoyl)piperidin-4-yl)methoxy)-3-(phenylsulfonyl)-1,2,5-oxadiazole 2-oxide] registered a melting point of 109 to 111 °C. Besides, in data set [1], the IC50 was 3.76 ± 1.6 µM and the “SI Values (selectivity index)” value is given as 2. In data set [2], the IC50 was determined as 1.57 ± 0.265 µM. Also, at FAK kinase, the IC50 came to 0.3 ± 0.009 µM. Further, the IC50 in data set [3] turned out to be 1.74 ± 0.305 µM.

The values are drawn from PMC8304610, “Discovery of Novel 2,4-Dianilinopyrimidine Derivatives Containing 4-(Morpholinomethyl)phenyl and N-Substituted Benzamides as Potential FAK Inhibitors and Anticancer Agents” (Molecules, 2021).
